Where two headings read alike, the source gives them in different places. Marks after values point to notes of the source that are not given here.
Experiments:
H9c2 cells = experiment: Mitochondrial anion superoxide production, MitoSOX flow cytometry; format: cell-based; conditions: for increase in MitoSOX mean intensity (anion superoxide production): H9c2, acute, Antimycin A 10 μg/mL, Doxo 5 μM
Experimental: (§5) Thiol groups in the adenine nucleotide translocase were measured by eosin 5-maleimide interaction (EMA) with cysteine residues susceptible to oxidative stress or oxidizing agents [21] and followed by SDS/PAGE electrophoresis. […] Experiments for anion superoxide production were performed in intact cardiomyoblasts using the fluorescent probe MitoSOX (Molecular Probes) in the flow cytometer. H9c2 cells were loaded with MitoSOX during 15 min at 37°C with a cell density of 100,000 cells/mL (final concentration of MitoSOX 5 μM). Afterwards, the cells were subjected to Cas III-Ea treatment (4 or 20 μM); DOXO (5 μM) and Antimycin A (10 μg/mL) were used as positive controls. Finally, the cells were washed and analyzed on a FACSCanto II (BD Biosciences). FACS data was analyzed using FlowJo version 10.0 (Tree Star).

isolated rat hearts [1] = experiment: Langendorff-perfused isolated rat heart: mechanical performance (RPP, HR, ±dP/dt, cardiac efficiency); conditions: for decrease of cardiac efficiency (CE): at IC50 for RPP; for +dP/dt × 1000 (contraction rate) / Cardiac efficiency / −dP/dt × 1000 (relaxation rate): hearts treated at the IC50; for t 0.5, time for half-inhibition of RPP / RPP reduction from baseline: 5 μM; for heart rate (HR) reduction: perfused at 5 μM; for IC50: read-out: IC50, half-maximal inhibitory concentration for RPP (heart contractile function)
Experimental: (§1) Male Wistar rats (250–300 g) were injected with heparin (10^3 U·kg^−1, i.p.) 20 minutes prior to anesthesia with pentobarbital (100 mg·kg^−1, i.p.). When bilateral corneal reflex was absent, the heart was excised through an abdominal approach. Then, the ascending aorta was visualized and cut and the heart was placed in a cardioplegic solution. To avoid ischemia, the time between cutting the diaphragm to placing the heart in the solution was less than 60 seconds. The hearts were mounted in accordance with the Langendorff model and perfused at a constant flow (12 ml·min^−1) with a Krebs-Henseleit buffer as previously described. A latex balloon connected to a pressure transducer filled with saline solution was inserted into the left ventricle after establishing autonomous contraction. The pulmonary artery was cannulated and connected to a closed chamber using a Clark-type oxygen electrode (Yellow Springs Instruments, Yellow Springs, Ohio) to measure myocardial oxygen consumption (MVO2) in the coronary effluent. The rate of MVO2 was calculated as the difference between the concentration in the K-H buffer before (100%) and after perfusion. Data Trax software (WPI, Sarasota, Florida) was used for continuous recording of the heart rate (HR), left ventricular pressure (LVP), MVO2, and maximum positive and negative derivative of left ventricular pressure (±dP/dt). The baseline was established during 10–15 minutes of K-H perfusion. Each concentration of Cas or Doxo remained in the heart for 30 min. Hearts in the control group were perfused with K-H buffer during the whole experimental time. Rate pressure product (RPP = HR × LVP) and cardiac efficiency ([…]) were calculated as previously reported.

isolated rat hearts [2] = experiment: Myocardial oxygen consumption and energetic metabolites (ATP, PCr) in perfused hearts; conditions: Cas at IC50, Doxo 5 μM
Experimental: as §1
(§2) To measure the energetic metabolites ATP, phosphocreatine (PCr), and aconitase activity at the end of the perfusion protocols, samples were prepared as follows: the hearts were removed from the perfusion system by cutting the aorta and immediately flash-frozen with liquid N2, weighed, and stored at −80°C. Afterward, the hearts were homogenized in ice-cold buffer containing 250 mM sucrose, 10 mM HEPES, and 1 mM EDTA (pH 7.4). For enzymatic determination, aliquots of the homogenate were immediately frozen in liquid nitrogen and stored at −80°C. Quantification of ATP and PCr was carried out in a HPLC system with a dual-pump gradient (Waters Chromatography, Toronto, Canada) as previously described.

[3] = system: mitochondria isolated from Cas-treated hearts; experiment: Respiratory activity of mitochondria isolated from treated hearts (Clark-type oxygen electrode); parameters: species or system rat; conditions: for State 4 respiration: 10 mM glutamate-malate; for Respiratory control / State 3 respiration: malate/glutamate; for State 3 respiration: after 100 μM ADP; for Max. respiration: 0.08 μM CCCP
Experimental: (§3) To measure mitochondrial oxygen consumption, mitochondrial membrane potential, and Ca^2+ uptake, cytochrome c samples were prepared as follows: after perfusion, heart tissue from the left ventricle was minced and homogenized in cold mitochondrial isolation medium (in mM: 125 KCl, 1 EDTA, and 10 HEPES-HCl; pH 7.3). The mitochondrial fraction was obtained by differential centrifugation using the protease Nagarse, as previously described. Mitochondrial oxygen consumption was measured using a Clark-type oxygen electrode. The experiments were carried out in respiration assay medium containing 125 KCl, 10 HEPES-HCl, and 3 KH2PO4 (in mM) with pH 7.3. State 4 respiration was measured in the presence of 10 mM glutamate-malate, and state 3 respiration was evaluated after addition of 100 μM ADP. Maximal respiration was determined with 0.08 μM of carbonyl cyanide m-chlorophenyl hydrazine (CCCP). The mitochondrial membrane potential was measured by fluorometry using 5 μM safranine. Mitochondrial Ca^2+ uptake was determined with the metalochromic indicator, Arsenazo III, or calcium green 5N (5N-CG), using a medium containing 50 μM Arsenazo or 10 μM 5N-CG, 10 mM succinate plus rotenone (0.1 μg·ml^−1), 200 μM ADP, and 0.25 μg oligomycin A. Pulses of 10 nmol Ca^+2 were added every 3 minutes to reach a Ca^+2 release due to MPT opening. Mitochondrial cytochrome c quantification from Cas-treated hearts was performed using Western blot analysis as described previously. The blots were developed with Luminata crescendo substrate (Merck Millipore, Darmstadt, Germany) and detected with VisionWorks LS-UVP Chimio System (BioSpectrum 415 Imaging System, Cambridge, UK).

[4] = system: mitochondrial permeability transition pore; experiment: Mitochondrial Ca2+ retention capacity (MPT opening); parameters: species or system rat; conditions: for decrease of mitochondrial Ca2+ retention capacity: mitochondria from hearts treated at IC50, versus control
Experimental: as §3

[5] = system: adult rat ventricular myocytes; experiment: Cardiomyocyte viability, Alamar Blue; format: cell-based; conditions: 24 h treatment, read-out: LD50 (IC50) for cardiomyocyte viability
From the text: (§4) Ventricular cardiomyocytes were obtained from male Wistar rats (250–300 g) by digestion with collagenase type II as previously described. Cells were washed in Tyrode solution (mM): 130 NaCl, 5.4 KCl, 0.4 NaH2PO4, 0.5 MgCl2, 25 HEPES, and 5 glucose with pH 7.4. After isolation, cells were cultivated at a density of 3.2 × 10^3 viable cells/well in 96-well plates pretreated with laminin in M-199 medium supplemented in mM with 5 taurine, 5 creatine, 2 L-carnitine, 2.5 sodium pyruvate, and penicillin-streptomycin at 100 U·ml^−1 and 100 μg·ml^−1, respectively, at 37°C, with 5% CO2 and 95% air. After incubation for three hours, varying concentrations of Cas were tested in triplicate, exposing the myocytes during 24 hours to each treatment. At the end of the incubation period, the cytotoxicity of Cas was measured using the Alamar Blue viability test (Life Technologies, Carlsbad, CA, USA). Release of cytoplasmic lactate dehydrogenase (LDH) was determined using CytoTox-ONE homogeneous membrane integrity kit (Promega Madison, WI, USA). The activity of caspases 3/7 and caspase 9 was measured in cell lysates using caspase-Glo 3/7 and caspase-Glo 9 test luminescent assay (Promega, Madison, WI, USA), respectively. The cardiomyoblast cell line H9c2 (ATCC CRL-1446) was maintained using standard procedures in DMEM supplemented with 10% fetal bovine serum prior to the oxidative stress experiments.

isolated cardiomyocytes = experiment: LDH release (CytoTox-ONE); format: cell-based, rat; conditions: cardiomyocytes treated at IC50 (II-gly 2 μM, Doxo 10 μM)
From the text: as §4

caspases 3 and 7 = experiment: Caspase-Glo 3/7 activity in cell lysates; format: cell-based, rat; conditions: cardiomyocytes treated at IC50, compared to Doxo or the control
From the text: as §4

caspase 9 = experiment: Caspase-Glo 9 activity in cell lysates; format: cell-based, rat; conditions: cardiomyocytes treated at IC50
From the text: as §4

cytochrome c = experiment: Mitochondrial cytochrome c content by Western blot; parameters: species or system rat; conditions: heart mitochondria after 30 min perfusion at IC50
Experimental: as §3, with “Mitochondrial cytochrome c quantification from Cas-treated hearts was performed using Western blot analysis as described previously. The blots were developed with Luminata crescendo substrate (Merck Millipore, Darmstadt, Germany) and detected with VisionWorks LS-UVP Chimio System (BioSpectrum 415 Imaging System, Cambridge, UK).” left out

[6] = system: mitochondria isolated from treated hearts; experiment: Mitochondrial membrane potential (safranine fluorometry); parameters: species or system rat
Experimental: as §3, with “Mitochondrial cytochrome c quantification from Cas-treated hearts was performed using Western blot analysis as described previously. The blots were developed with Luminata crescendo substrate (Merck Millipore, Darmstadt, Germany) and detected with VisionWorks LS-UVP Chimio System (BioSpectrum 415 Imaging System, Cambridge, UK).” left out

[7] = molecular target: T1, adenine nucleotide translocase (Rattus norvegicus, UniProt Q05962); experiment: Thiol groups of adenine nucleotide translocase (eosin 5-maleimide); conditions: mitochondria from hearts treated at IC50
T1 construct: adenine nucleotide translocase from mitochondria isolated from Cas-treated hearts; from tissue; host or cells: mitochondria isolated from Casiopeina-perfused rat hearts
T1 sequence (Q05962 1-298): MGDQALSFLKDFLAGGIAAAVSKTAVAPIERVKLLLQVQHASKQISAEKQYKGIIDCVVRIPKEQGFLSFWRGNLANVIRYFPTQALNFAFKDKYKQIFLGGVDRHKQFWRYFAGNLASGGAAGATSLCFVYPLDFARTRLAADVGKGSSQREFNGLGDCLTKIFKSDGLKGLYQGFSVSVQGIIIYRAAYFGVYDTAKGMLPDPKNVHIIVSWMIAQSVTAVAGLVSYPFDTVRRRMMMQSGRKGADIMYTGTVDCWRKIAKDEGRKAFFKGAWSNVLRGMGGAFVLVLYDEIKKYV
Experimental: as §5

aconitase = experiment: Mitochondrial aconitase activity in heart homogenates; conditions: ex vivo heart, Cas at IC50, Doxo 5 μM
Experimental: as §2

subcutaneous tumors = conditions: nude mice ref 30; cited from earlier work
[8] = isolated rat heart, at 30 min perfusion
[9] = mitochondria from treated hearts, CsA 0.5 μM added in vitro
[10] = mitochondria from CsA-III-Ea-treated hearts
[11] = mitochondria from hearts perfused with 10 μM III-Ea alone

Compound	increase in MitoSOX mean intensity (anion superoxide production) (H9c2 cells) [fold]	decrease of cardiac efficiency (CE) (isolated rat hearts [1]) [%]	+dP/dt × 1000 (contraction rate) (isolated rat hearts [1])	Cardiac efficiency (isolated rat hearts [1])	−dP/dt × 1000 (relaxation rate) (isolated rat hearts [1])	t 0.5, time for half-inhibition of RPP (isolated rat hearts [1]; isolated rat heart)	heart rate (HR) reduction (isolated rat hearts [1])	IC50 (isolated rat hearts [1]; [8]) [µM]	State 4 respiration [3] [nmol O min^−1·mg^−1]	Respiratory control [3]	State 3 respiration [3]	decrease of mitochondrial Ca2+ retention capacity [4] [%]	protective effect of CsA on Ca2+ retention capacity [4, 9] [%]	IC50 [5] [µM]	increase in LDH release compared to the control (isolated cardiomyocytes) [fold]	additional MVO2 to generate the same contractile force compared to control hearts (RPP/MVO2 ratio) (isolated rat hearts [2]) [fold]	change in MVO2 (isolated rat hearts [2])	decrease in ATP content (isolated rat hearts [2]) [%]	Max. respiration [3]	other results
CCCCCC[C@H]1C(=O)O[C@H](C)[C@H](NC(=O)c2cccc(NC=O)c2O)C(=O)O[C@@H](C)[C@@H]1OC(=O)CC(C)C [Antimycin A]	9																			
Cc1ccnc2c1ccc1c(C)ccnc12.NCC(=O)[O-].O.O.O=[N+]([O-])[O-].[Cu+2] [Cas II-gly, Aqua(4,7-dimethyl-1,10-phenanthroline)(glycinate)copper(II)nitrate]		23	2.0 ± 0.13^∗ mmHg·s^−1	4.8 ± 0.81 RPP · MVO2 ^−1	−0.7 ± 0.09^∗ mmHg·s^−1	29 ± 1.0^d min	not affected	5.5 ± 0.5	13.0 ± 5.0	1.6 ± 0.3^∗	20.2 ± 7.3^∗ nmol O min^−1·mg^−1	46.5	60	2 ± 0.5	3.5					PCr/ATP ratio (isolated rat hearts [2]): augmented; decrease in state 3 respiration rate ([3]; versus control): 77%; reduction in maximal respiration ([3]; versus control): 82%; increase in activity of caspases 3 and 7 (caspases 3 and 7): ~ 4 fold; increase in caspase 9 activity (caspase 9): 1.7 fold; mitochondrial cytochrome c content (cytochrome c): reduction of cytochrome c
CC(=O)C=C(C)[O-].Cc1ccnc2c1ccc1c(C)ccnc12.O.O.O=[N+]([O-])[O-].[Cu+2] [Cas III-Ea, Aqua(4,7-dimethyl-1,10-phenanthroline)(acetylacetonate)copper(II)nitrate]		47	2.4 ± 0.23^∗ mmHg·s^−1	3.3 ± 0.2^∗ RPP · MVO2 ^−1	−0.8 ± 0.13^∗ mmHg·s^−1	21 ± 5.0^d min	not affected	1.3 ± 0.2	24.5 ± 5.4	1.5 ± 0.2^∗	37.3 ± 2.7^∗ nmol O min^−1·mg^−1	50.5		2 ± 0.4		1.47	no changes	56	48.3 ± 5.7^∗ nmol O min^−1·mg^−1	t 0.5 of decline of contractility (RPP) (isolated rat hearts [1]; 1 μM CsA perfused 10 min, then 10 μM III-Ea): 11.98 min; RPP reduction from baseline (isolated rat hearts [1]; at 20 min): 48%; RPP reduction from baseline (isolated rat hearts [1]; at 30 min): 97%; t 0.5 of decline of contractility (RPP) (isolated rat hearts [1]; 10 μM III-Ea alone): 9.65 min; more calcium tolerated than mitochondria from III-Ea hearts [4, 10]: 69%; calcium retention capacity ([4]; mitochondria from CsA-III-Ea-treated hearts (1 μM CsA before 10 μM III-Ea)): 226 ± 13 nmol/mg; calcium retention capacity [4, 11]: 133 ± 14 nmol/mg; delay in the opening of MPT in the presence of CsA [4, 9]: 1.8 fold; mitochondrial membrane potential after addition of 10 μM Ca2+ [6, 10]: remained polarized; mitochondrial membrane potential after addition of 10 μM Ca2+ [6, 11]: depolarization; change in anion superoxide production (MitoSOX) (H9c2 cells; H9c2 intact cells, 4 or 20 μM): no change; oxidation state of adenine nucleotide translocase thiol groups [7]: twofold increase
COc1cccc2c1C(=O)c1c(O)c3c(c(O)c1C2=O)C[C@@](O)(C(=O)CO)C[C@@H]3O[C@H]1C[C@H](N)[C@H](O)[C@H](C)O1 [Doxo, Doxorubicin, reference compound]	4	55	2.1 ± 0.23^∗ mmHg·s^−1	2.8 ± 0.1^∗ RPP · MVO2 ^−1	−0.8 ± 0.18^∗ mmHg·s^−1	18.6 ± 4.0^d min	24%		18 ± 2.0	1 ± 0.3^∗	25 ± 8.8^∗ nmol O min^−1·mg^−1		51		4.7	1.8	no changes	74	25 ± 15.1^∗ nmol O min^−1·mg^−1	IC50 (isolated rat hearts [1]; Rattus norvegicus, 0.5 h): 5 ± 0.3 µM; PCr levels (isolated rat hearts [2]): decreased; IC50 ([5]; Rattus norvegicus, Ventricular myocyte): 10 ± 0.5 µM; aconitase activity (aconitase): decreased; reduction of the volume of subcutaneous tumors (subcutaneous tumors): 20%
